According to article PMC13254535, “The RecBCD complex interacts directly with the DNA sliding clamp in Escherichia coli” (Nucleic Acids Research, 2026):
Residues, ends and D or L forms follow the SMILES beside them.

Key:
Assay type in all cases: binding
Set-up in all cases: made in house
[1] = target: T1, β-clamp (Escherichia coli, UniProt P0A988); test: Isothermal titration calorimetry (ITC), β-clamp titrated into peptide; conditions: 25°C; pH 7.4; one-site model; n = 3; affected by inaccurate peptide concentration and methionine oxidation
Procedure: (§1) Unlabeled and ^2H, ^13C, ^15N-labeled E. coli β-clamp was expressed and purified as previously described. The β-clamp concentration was determined by absorbance at 280 nm measured on a NanoDrop ND-1000 spectrophotometer (Thermo Fisher Scientific Inc.) and using an extinction coefficient calculated by the Expasy ProtParam web tool (https://web.expasy.org/protparam/). All β-clamp concentrations are listed as the protomer concentration. The peptides were readily soluble at micromolar concentration, although at high micromolar concentrations, we cannot rule out the presence of aggregates.
Unlabeled β-clamp was buffer-exchanged into 20 mM sodium phosphate, 100 mM NaCl, 1 mM tris(2-carboxyethyl)phosphine (TCEP), pH 7.4 using a 15-ml spin filter (10 000 MWCO) (Millipore, Darmstadt, Germany). DMSO was added to the β-clamp sample to a final concentration of 0.02% (v/v). RecB nuclease motif peptide ([…]) (dissolved in 100% DMSO) was diluted into the same buffer as above, with a final DMSO concentration of 0.02% (v/v). […] The isothermal titration calorimetry (ITC) experiments were repeated three times and were recorded at 25°C on a Malvern MicroCal PEAQ-ITC instrument (Malvern, Worcestershire, United Kingdom) using a stir speed of 750 rpm. […]

[2] = target: T1, β-clamp; test: Saturation transfer difference (STD)-NMR of peptides with β-clamp; conditions: 150 µM peptide, 1.5 µM β-clamp; 25°C; 20 mM sodium phosphate, 100 mM NaCl, 5 mM DTT, 0.3% DMSO, 5% D2O, pH 7.4; 600 MHz
Procedure: All peptides, except Pol III C-terminal ([sequence]), were N-terminally acetylated and C-terminally amidated to remove charges in the N-and C-termini, not present in the context of the full-length proteins.
Unlabeled and ^2H, ^13C, ^15N-labeled E. coli β-clamp was expressed and purified as previously described [54]. The β-clamp concentration was determined by absorbance at 280 nm measured on a NanoDrop ND-1000 spectrophotometer (Thermo Fisher Scientific Inc.) and using an extinction coefficient calculated by the Expasy ProtParam web tool (https://web.expasy.org/protparam/) [55]. All β-clamp concentrations are listed as the protomer concentration. The peptides were readily soluble at micromolar concentration, although at high micromolar concentrations, we cannot rule out the presence of aggregates.
Saturation transfer difference (STD)-nuclear magnetic resonance (NMR) experiments were performed at 25°C on a Bruker Avance III HD 600 MHz NMR spectrometer equipped with a 5-mm QCI Cryoprobe. […] Samples were transferred to 5-mm NMR tubes.

[3] = target: T1, β-clamp; test: 2D TROSY-1H-15N-HSQC chemical shift perturbation of β-clamp; conditions: 140 µM 2H,13C,15N-labeled β-clamp, 700 µM peptide (five-fold molar excess); 37°C; 20 mM sodium phosphate, 100 mM NaCl, 5 mM DTT, 2% DMSO, pH 7.4
Procedure: as §1
2D TROSY-^1H-^15N-HSQC (Two-Dimensional Transverse Relaxation Optimized Spectroscopy Heteronuclear Single Quantum Coherence experiment correlating ^1H and ^15N nuclei) spectra were recorded of 140 µM ^2H, ^13C, ^15N-labeled β-clamp with and without the addition of 700 µM RecB nuclease motif peptide ([…]) in 20 mM sodium phosphate, 100 mM NaCl, 5 mM DTT, 5% (v/v) D2O, 125 µM DSS, 2% (v/v) DMSO, pH 7.4. […] The samples were transferred to 5-mm Shigemi tubes, and the NMR spectra were recorded at 37°C on a Bruker Avance III 750 MHz spectrometer equipped with a cryoprobe. […] The spectra were processed in Topspin (Bruker) and analyzed in CcpNmr Analysis. […] Chemical shift perturbations (CSPs) were calculated using the following equation [57]: […]

T1 sequence (P0A988 whole entry): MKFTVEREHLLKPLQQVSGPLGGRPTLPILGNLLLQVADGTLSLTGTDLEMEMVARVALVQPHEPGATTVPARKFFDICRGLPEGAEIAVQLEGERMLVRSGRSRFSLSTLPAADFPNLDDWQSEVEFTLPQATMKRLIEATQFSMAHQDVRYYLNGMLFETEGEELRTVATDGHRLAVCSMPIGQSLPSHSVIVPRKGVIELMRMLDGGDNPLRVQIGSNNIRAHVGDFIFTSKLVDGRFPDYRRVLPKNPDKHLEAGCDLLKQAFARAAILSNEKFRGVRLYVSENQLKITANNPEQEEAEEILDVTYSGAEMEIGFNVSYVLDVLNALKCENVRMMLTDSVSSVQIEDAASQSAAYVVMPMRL

CSCC[C@H](NC(=O)[C@H](CCC(=O)O)NC(=O)[C@@H](NC(=O)[C@H](CCC(N)=O)NC(=O)[C@H](CCCCN)NC(C)=O)C(C)C)C(=O)N[C@@H](CCC(=O)O)C(=O)N[C@@H](Cc1ccccc1)C(=O)N[C@@H](Cc1ccc(O)cc1)C(N)=O [QVEMEF] (Ac-KQVEMEFY-NH2)
N-value (stoichiometry) [1]: 0.39 ± 0.02 | STD-NMR binding [2]: shows a distinct STD signal, indicating specific interaction | chemical shift perturbations (CSPs) of β-clamp residues [3]: The largest CSPs localized to residues surrounding the canonical CBM binding pocket, including L177, Y244, V247, I317, S345, Q348, V361, M364, and R365
